This data set in a line: gradient 5% acetonitrile 3 min, to 50% in 2 min, to 85% in 15 min, held 3 min, 100 µL/min. As to conditions: column: Zorbax Extend-C18 2.1 x 50 mm; eluents: water / acetonitrile, 0.1% formic acid. The method, boiled down:
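In both positive and negative ionization mode, a quadrupole time-of-flight mass spectrometer coupled to HPLC analyzed pure standards run in mixtures of ~100 molecules. The Zorbax Extend-C18 column (2.1 × 50 mm, 1.8 μm) was operated at 100 μL/min with water and acetonitrile, each containing 0.1% formic acid. The dead volume was 40 μL and the dwell volume 900 μL. Retention time came from adduct peaks that were computationally picked and individually inspected by hand.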
For the molecule `COc1cc(OC)c(NC(=O)NC2CCN(c3ccc(F)c(C)c3)C2=O)cc1Cl` (stereo not drawn), the RP-LC retention time amounted to 888 s.

`O=C(NCc1cccnc1)c1cccn2c(=O)c3cc(Cl)ccc3nc12` had an RP-LC retention time of 657 s.

With `COc1ccc(N2CCN(C(=O)c3cc4c(s3)CN(C3CCCC3)C4)CC2)cc1`, the RP-LC retention time is 623 s.

With `COC(=O)c1c(C)[nH]c(C(=O)N2CCC(CC(=O)NCCN3CCOCC3)CC2)c1C`, the RP-LC retention time is 584 s.

Molecule `COc1ccc(Cl)cc1NC(=O)CSc1nnc2c3cc(-c4ccc(C)cc4)nn3ccn12` registered an RP-LC retention time of 1040 s.

Take `Cc1nc(-c2noc(-c3ccc(F)cc3)n2)cn1CC(=O)Nc1cccc(F)c1`: the RP-LC retention time was determined as 897 s.

Regarding `CCOc1ccc(NC(=O)C2(C)Oc3cccnc3N(C(C)C)C2=O)cc1` (stereo not drawn), the RP-LC retention time was determined as 1000 s.

Take `COc1ccc(NC(=O)Cc2csc3nc(-c4cccc(Br)c4)cn23)cc1OC`: the RP-LC retention time came out at 882 s.

`Cn1c(=O)sc2cc(S(=O)(=O)N3CCC(C(=O)Nc4ccc(Cl)cc4)CC3)ccc21` came in with an RP-LC retention time of 926 s.

The molecule `Cn1cccc1C(=O)N1CC(c2nc(CCOC3CCCC3)no2)C1` returned an RP-LC retention time of 845 s.

`CN1C(=O)C(C)(C(=O)Nc2ccccc2F)Oc2cccnc21` (stereo not drawn) gave an RP-LC retention time of 780 s.

`CCn1cc(S(=O)(=O)NC2CCCC2)c2cccnc21` displayed an RP-LC retention time of 808 s.

On to `COc1ccc(CNC(=O)Cn2cccc2-c2nnc(-c3ccccc3)o2)cc1`, for which the RP-LC retention time was found to be 862 s.

`CC1CC(=O)Nc2ccccc2N1C(=O)c1ccc(Cl)cc1` (stereo not drawn) returned an RP-LC retention time of 743 s.

For `O=C(COc1ccc2c(-c3ccccc3)cc(=O)oc2c1)N1CCC2(O)CCCCC2C1` (stereo not drawn), the RP-LC retention time amounted to 845 s.

`Cc1ccc(CN2C[C@@H]3C(=O)N(CCc4ccccc4)C(=O)[C@@H]3C2)o1`: the RP-LC retention time is 719 s.

For the molecule `Cc1ccc(Sc2nccnc2N2CCCC(C(=O)N3CCN(c4ccc(F)cc4)CC3)C2)cc1` (stereo not drawn), the RP-LC retention time stood at 1230 s.

As to `O=C(CSc1nnc(-c2cccnc2)o1)c1cccc([N+](=O)[O-])c1`, the RP-LC retention time was determined as 724 s.

In turn, `CCN(C(=O)c1ccc(C(C)(C)C)cc1)c1nc(-c2ccccc2)cs1` yielded an RP-LC retention time of 949 s.

As for `CN(CCc1noc(COc2ccc(F)cc2)n1)C(=O)c1ccc(F)cc1`, the RP-LC retention time was found to be 878 s.

On to `CCN1C(=O)Cc2cc(C(=O)NCc3cccs3)ccc21`, for which the RP-LC retention time was found to be 704 s.

For the molecule `COc1ccc(-c2nnc(Cc3nc(-c4ccccc4C)no3)o2)cc1`, the RP-LC retention time was 1010 s.

`C#CCOCC1CCN(C(=O)CC2CCCCC2)CC1` gave an RP-LC retention time of 864 s.

In turn, `CCc1nc2cc(-c3noc(Cc4ccsc4)n3)ccc2o1` returned an RP-LC retention time of 1030 s.

Turning to `O=C(NCc1ccc2c(c1)OCO2)C1CCc2nc(N3CCCC3)ncc2C1` (stereo not drawn), the RP-LC retention time came out at 631 s.

`COc1cc(-c2noc(Cn3cnc4c(cnn4-c4ccc(F)cc4)c3=O)n2)cc(OC)c1OC` gave an RP-LC retention time of 938 s.

For the molecule `CCN(CC)c1ccc(CNC(=O)C2CCc3nc(N4CCCCC4)ncc3C2)cc1` (stereo not drawn), the RP-LC retention time stood at 546 s.

As to `CN1C(=O)c2cccnc2Sc2cc(NC(=O)C3CCCO3)ccc21` (stereo not drawn), the RP-LC retention time stood at 619 s.

As to `Cc1ccn2cc(-c3ccc(NC(=O)C(C)(C)C)cc3)nc2n1`, the RP-LC retention time turned out to be 616 s.

As to `CCCc1ccc(S(=O)(=O)N2CCCC2c2nc(-c3cccc(C)c3)no2)cc1` (stereo not drawn), the RP-LC retention time is 1330 s.

With `Cc1c(C)n(C(=O)CN2CCC(C(N)=O)CC2)c2ccccc12`, the RP-LC retention time is 614 s.

With `Cn1ncc2c3ccccc3n(CC(=O)NCc3ccc4c(c3)OCO4)c2c1=O`, the RP-LC retention time stood at 792 s.

On to `COc1ccc(CCN2C(=O)C(NC(C)=O)(C(F)(F)F)C3=C2CC(C)(C)CC3=O)cc1OC` (stereo not drawn), for which the RP-LC retention time came out at 760 s.

`CCN1C(=O)C2(CCN(S(=O)(=O)c3ccc(Cl)c(C)c3)CC2)c2ccccc21` had an RP-LC retention time of 1100 s.

`CC(C)Oc1ccc(CNS(=O)(=O)c2cc3c(s2)CCN(C(=O)C2CCC2)C3)cc1`: the RP-LC retention time worked out at 1010 s.

Molecule `CCc1nnc2cc(N3CCN(C(=O)c4ccc(C(C)C)cc4)CC3)cnn12` showed an RP-LC retention time of 731 s.

Molecule `COC(=O)C1=CN(c2ccc(C)cc2)c2cc(F)ccc2S1(=O)=O` came in with an RP-LC retention time of 946 s.

With `COc1ccc(N2CCN(c3cc(SCC(=O)NCc4ccccc4)ncn3)CC2)cc1`, the RP-LC retention time worked out at 823 s.

Turning to `CCOC(=O)c1c(S(=O)(=O)N2CCC(C(=O)Nc3ccc(F)c(F)c3)CC2)c(C)n(C)c1C`, the RP-LC retention time was 890 s.

Molecule `COc1cc(NC(=O)NC2CCN(c3ccc(F)cc3)C2=O)cc(OC)c1` (stereo not drawn) returned an RP-LC retention time of 769 s.

Molecule `O=C(NCCc1ccccc1)N1CCCC1c1nc(-c2ccccc2)no1` (stereo not drawn) returned an RP-LC retention time of 922 s.

For `CCCN(CC1CCOC1)C(=O)Nc1cc(Cl)ccc1OC` (stereo not drawn), the RP-LC retention time was 961 s.

Molecule `CCCN1C(=O)c2c(C(=O)NCc3ccc(F)cc3)ncn2CC1(C)C(=O)NCCC(C)C` (stereo not drawn) had an RP-LC retention time of 824 s.

In turn, `Cc1ccccc1C(=O)N1CCc2c(c(-c3nc(C4CC4)no3)nn2C)C1` displayed an RP-LC retention time of 801 s.

The molecule `CC(C)CNC(=O)N1CCN(Cc2nc3cccnc3n2-c2cccc(F)c2)CC1` registered an RP-LC retention time of 634 s.

As to `Cc1sc(-c2cc(C(F)(F)F)on2)cc1S(=O)(=O)Nc1ccc(Br)cc1F`, the RP-LC retention time came to 1230 s.

For the molecule `Cc1nn(C(C)C(=O)NCCCN(C)Cc2ccccc2)c(=O)c2c(C)n(-c3ccccc3)nc12` (stereo not drawn), the RP-LC retention time came to 687 s.

On to `Cc1ccc(NC(=O)N2CCN(CCn3c(C(F)(F)F)nc4cccnc43)CC2)cc1`, for which the RP-LC retention time was 648 s.

Turning to `COC(=O)CCNC(=O)C1c2ccccc2C(=O)N(Cc2ccccc2)C12CCCC2` (stereo not drawn), the RP-LC retention time was 840 s.

Turning to `O=C(NCc1ccco1)C1CCN(C(=O)c2ncn3c2COC(c2ccc(Cl)cc2)C3)CC1` (stereo not drawn), the RP-LC retention time was determined as 753 s.

`CCN1CCN(C(=O)C2CCN(S(=O)(=O)c3ccc4c(c3)sc(=O)n4C)CC2)CC1` registered an RP-LC retention time of 551 s.

`COc1ccccc1CC(=O)N1CCN(c2ccc(-c3ccccn3)nn2)CC1` had an RP-LC retention time of 598 s.

`O=C(c1ccsc1)N1CC(F)(F)C[C@H]1COc1ccc2c(c1)CCC2`: the RP-LC retention time stood at 1150 s.

In turn, `CCOc1ccc(-n2nnnc2CNS(=O)(=O)c2ccc(CC)s2)cc1` displayed an RP-LC retention time of 949 s.

`CCOc1ccc(CNC(=O)c2c(C)sc3ccn(CC(C)C)c(=O)c23)cc1` returned an RP-LC retention time of 1010 s.

Molecule `CNC(=O)c1c(NC(=O)c2ccc(Cl)cc2)sc2c1CCC2` registered an RP-LC retention time of 1180 s.

With `Cc1cc(C)cc(S(=O)(=O)N2CCC(C(=O)NCc3csc(-c4ccccc4)n3)CC2)c1`, the RP-LC retention time turned out to be 990 s.

`CNC(=O)c1cc(Cc2ccc3nc(Nc4cccc(C(F)(F)F)c4)[nH]c3c2)ccn1` displayed an RP-LC retention time of 680 s.

`Cc1ccccc1CNC(=O)C1CCCN(c2ccc(=O)n(-c3cccc(Cl)c3)n2)C1` (stereo not drawn): the RP-LC retention time amounted to 922 s.

`Cc1ccc(CNC(=O)c2ccc3c(c2)N(C)C(=O)c2ccccc2O3)cc1` registered an RP-LC retention time of 931 s.

Molecule `O=C(CSc1ncc(CO)n1Cc1ccccc1)N1CCCc2ccccc21` registered an RP-LC retention time of 684 s.

As to `CCC1Oc2ccc(S(=O)(=O)N3CCC(C(=O)NCc4ccc(F)cc4)CC3)cc2NC1=O` (stereo not drawn), the RP-LC retention time amounted to 922 s.

`Nc1cc(C2CCN(C(=O)Nc3cccc(Cl)c3)CC2)no1` had an RP-LC retention time of 727 s.

In turn, `COc1cccc(NC(=O)Cn2c(=O)c3cc(-c4ccco4)nn3c3ncccc32)c1` had an RP-LC retention time of 807 s.

Regarding `CC(C)(C)c1ccc(-c2nc(C3CC(=O)N(c4ccc(F)cc4)C3)no2)cc1` (stereo not drawn), the RP-LC retention time was 1250 s.

In turn, `O=C(O)c1cnc(N2CCCCC2)nc1-c1ccccc1` displayed an RP-LC retention time of 956 s.

`CCOc1cccc(-c2noc(Cn3c(=O)n(CC)c(=O)c4ccccc43)n2)c1` displayed an RP-LC retention time of 983 s.

In turn, `COc1ccc(OC)c2nc3c(C(=O)NCCN(C)C)cccc3nc12` displayed an RP-LC retention time of 595 s.

`COC(=O)CNC(=O)N1CCN(c2nc3ccccc3n2Cc2ccccc2)CC1` displayed an RP-LC retention time of 644 s.

The molecule `O=S(=O)(c1ccc(-c2noc(-c3ccc(F)c(F)c3)n2)cc1)N1CCCC1` displayed an RP-LC retention time of 1210 s.

`COc1ccc(-c2nc3cnccn3c2Nc2ccc(C)cc2C)cc1` showed an RP-LC retention time of 971 s.

Molecule `COc1ccccc1NC(=O)C1CCN(S(=O)(=O)c2ccc3[nH]c(=O)ccc3c2)CC1` came in with an RP-LC retention time of 734 s.

In turn, `Cc1ccc(CN2CCN(C3CCN(C(=O)c4ccc(Br)o4)CC3)C(=O)C2=O)cc1` showed an RP-LC retention time of 718 s.

For `O=C(Nc1cccc(F)c1)[C@@H]1OCC(=O)N(C2CC2)[C@H]1c1ccccc1`, the RP-LC retention time was found to be 849 s.

On to `CCOC(=O)c1nc2cc(OC)c(OC)cc2[nH]c1=O`, for which the RP-LC retention time was determined as 620 s.

For `CC(C)n1cc(S(=O)(=O)Nc2ccc(F)cc2)c2cccnc21`, the RP-LC retention time is 869 s.

In the case of `Cc1ccc(Cl)cc1NC(=O)C1CCCN1S(=O)(=O)c1cc2c(cc1C)NC(=O)C(C)O2` (stereo not drawn), the RP-LC retention time was found to be 892 s.

Regarding `COc1cc(Nc2nc(C(=O)N3CCCCC3)cc3occc23)cc(OC)c1OC`, the RP-LC retention time was found to be 808 s.

(Values after the METLIN SMRT retention time set (Domingo-Almenara et al. 2019).)
